Article PMC9252148 (IUCrJ, 2022)

Assays:
LCMV NP-exo = biological target: T1, LCMV NP-exo (Lymphocytic choriomeningitis virus (strain Armstrong), UniProt P09992)
T1 construct: gene N

MOPV NP-exo = biological target: T2, MOPV NP-exo (Mammarenavirus mopeiaense, UniProt P19239); details: 5 mM MnCl2, pH 8.0, 310 K, 5 min, 0.25 µM enzyme, 1.5 µM HP4 RNA; Mn2+-dependent; acts by metal-ion chelation
T2 construct: gene N
T2 sequence (P19239 365-570 limits assumed): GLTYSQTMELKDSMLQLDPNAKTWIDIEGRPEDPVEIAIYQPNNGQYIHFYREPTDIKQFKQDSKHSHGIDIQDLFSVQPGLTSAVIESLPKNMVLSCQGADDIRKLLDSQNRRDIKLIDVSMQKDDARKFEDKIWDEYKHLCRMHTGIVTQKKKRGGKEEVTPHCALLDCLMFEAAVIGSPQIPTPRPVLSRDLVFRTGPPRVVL

T1 sequence (P09992 357-558 limits assumed): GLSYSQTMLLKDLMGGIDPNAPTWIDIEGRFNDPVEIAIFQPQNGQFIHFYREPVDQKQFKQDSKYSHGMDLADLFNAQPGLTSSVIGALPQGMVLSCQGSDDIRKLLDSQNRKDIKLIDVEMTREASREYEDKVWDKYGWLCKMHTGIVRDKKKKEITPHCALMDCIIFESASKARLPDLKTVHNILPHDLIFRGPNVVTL

alendronate
IC50 (LCMV NP-exo): 68.6 ± 4.2 µM
IC50 (MOPV NP-exo): 65.9 ± 1.7 µM
